Source: article PMC10201364 (MicrobiologyOpen, 2023)

Columns and labels:
[1] = biological target: Ah‐BarR M103T (P ah‐barR promoter, mKate2 reporter) (Acidianus hospitalis, UniProt F4B5V3, M103T); experiment: cell-based; type: cell-based
Protocol: (§1) Reporter gene assays were performed as previously described (Bernauw et al., [2022]). pPRC6 and pITC variants (Table 1) were co‐transformed in E. coli MG1655 chemical competent cells using heat shock transformation. Transformant colonies of the Ah‐BarR biosensor strains were picked to inoculate wells of a transparent 96‐well plate (Greiner Bio‐One), each well filled with 200 µL of MOPS EZ Rich Defined medium (Teknova), prepared without the addition of the 5X EZ Supplement, after which the plate was incubated overnight in a ThermoMixer C (Eppendorf) at 30°C and 300 rpm. Next, a black 96‐well plate was filled with a naringenin solution prepared in ethanol (250 mg/L or 2.5 g/L), after which a Breathe‐Easy sealing membrane (Sigma‐Aldrich) was applied and the ethanol was evaporated in a ThermoMixer C (Eppendorf) at 75°C. […] Finally, the plate was sealed again using a Breathe‐Easy sealing membrane (Sigma‐Aldrich).
(§2) Plates were incubated at 30°C and 300 rpm for 40 h in a Synergy H1 microplate reader (BioTek) with measurements of OD600 and fluorescence (excitation wavelength: 588 nm, emission wavelength: 633 nm) being taken every 20 min. The gain was set to 140 for all measurements, except for the measurements with the amino acids (pools and separately), where the gain was set to 150. […] In addition, wells solely containing medium were measured as well to correct for the background signal.
(§3) Reporter expression was analyzed at t = 30 h, when all cultures had reached the stationary phase, by taking into account three subsequent time points (t–1, t, t+1). The corrected FL/OD600 value was calculated for each replicate (n = 4) as follows: FL/ODcor=FLt−1−FLmed,t−1/ODt−1−ODmed,t−1+FLt−FLmed,t/ODt−ODmed,t+FLt+1−FLmed,t+1/ODt+1−ODmed,t+1/3
(§4) Response curves were fitted to a Hill function of the shape P(M)=b+aM^n/θ^n+M^nforaβ−alanine−inducible responseb+aθ^n/θ^n+M^nforaβ−alanine−repressible response according to a previously published procedure (Landry et al., [2018]) with minor adaptations. […] Briefly, lmfit 1.1.0 was used to fit all replicates of a response curve to the appropriate Hill function using the Levenberg‐Marquardt algorithm (Moré, [1978]; Newville et al., [2016]). […] The dynamic range was estimated as μ=a/b .

[2] = biological target: Ah‐BarR M103N (P ah‐barR promoter, mKate2 reporter) (Acidianus hospitalis, UniProt F4B5V3, M103N); experiment: cell-based; type: cell-based
Ah‐BarR M103N (P ah‐barR promoter, mKate2 reporter), sequence (F4B5V3 entry or part of it M103N): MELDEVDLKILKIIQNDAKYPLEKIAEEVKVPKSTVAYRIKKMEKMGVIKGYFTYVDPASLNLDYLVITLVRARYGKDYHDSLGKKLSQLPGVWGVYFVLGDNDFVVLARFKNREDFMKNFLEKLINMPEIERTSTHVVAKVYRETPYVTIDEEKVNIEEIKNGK
Protocol: as §1, §2, §3, §4

[3] = system: 274‐bp DNA fragment harboring the entire barR‐aminotransferase intergenic region (WT promoter); experiment: EMSA of Ah‐BarR with WT promoter fragment; design: species or system Acidianus hospitalis; conditions: 5 mM β‐alanine added to binding reactions
Protocol: Electrophoretic mobility shift assays (EMSAs) were performed as described (Charlier & Bervoets, [2022]). Either the forward or the reverse primer was radioactively labeled, using fresh γ‐^32P‐ATP (Perkin Elmer) and T4 polynucleotide kinase (Thermo Scientific). Labeled promoter fragments were obtained by PCR using Taq DNA polymerase (Promega), a ^32P‐labeled primer, a non‐labeled second primer, and a plasmid template (Table A4). Labeled fragments were purified by acrylamide gel electrophoresis. EMSA reactions were prepared in protein‐DNA binding buffer (20 mM Tris‐HCl pH 8.0, 50 mM NaCl, 0.4 mM EDTA, 0.1 mM DTT, 1 mM MgCl2, 12.5% glycerol) with each reaction containing 1 µL (20 cps/µL) of ^32P‐labeled promoter fragment, an excess (25 µg/mL) of non‐labeled, nonspecific competitor DNA (sonicated salmon sperm DNA, Invitrogen), and purified Ah‐BarR protein. Amino acids were added to the reactions in the mentioned concentrations. […] Scans of the gels were analyzed by densitometry using ImageJ (Schneider et al., [2012]), after which GraphPad PRISM (version 9.3.1 for Windows, GraphPad Software, www.graphpad.com) was used to perform Hill curve fitting using nonlinear regression for saturated binding (one site, specific binding), and to determine apparent equilibrium dissociation constants K D.

[4] = biological target: Ah‐BarR T136A (P ah‐barR promoter, mKate2 reporter) (Acidianus hospitalis, UniProt F4B5V3, T136A); experiment: cell-based
Ah‐BarR T136A (P ah‐barR promoter, mKate2 reporter), sequence (F4B5V3 entry or part of it T136A): as the sequence (F4B5V3 entry or part of it M103N) above, with N103M, T136A counted along it
Protocol: as §1, §2, §3, §4

[5] = biological target: Ah‐BarR M103A (P ah‐barR promoter, mKate2 reporter) (Acidianus hospitalis, UniProt F4B5V3, M103A); experiment: cell-based
Ah‐BarR M103A (P ah‐barR promoter, mKate2 reporter), sequence (F4B5V3 entry or part of it M103A): as the sequence (F4B5V3 entry or part of it M103N) above, with N103A counted along it
Protocol: as §1, §2, §3, §4

[6] = biological target: Ah‐BarR (P ah‐barR promoter, mKate2 reporter) (Acidianus hospitalis, UniProt F4B5V3); experiment: cell-based
Ah‐BarR (P ah‐barR promoter, mKate2 reporter), sequence (F4B5V3 1-165): as the sequence (F4B5V3 entry or part of it M103N) above, with N103M counted along it
Protocol: as §1, §2, §3, §4

[7] = biological target: Ah‐BarR trunc (P ah‐barR promoter, mKate2 reporter) (Acidianus hospitalis, UniProt F4B5V3)
Ah‐BarR trunc (P ah‐barR promoter, mKate2 reporter), sequence (F4B5V3 entry or part of it): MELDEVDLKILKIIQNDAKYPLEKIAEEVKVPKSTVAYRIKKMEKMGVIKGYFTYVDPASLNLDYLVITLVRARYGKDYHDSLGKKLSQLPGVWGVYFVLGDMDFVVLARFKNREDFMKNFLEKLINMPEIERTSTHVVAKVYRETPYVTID
Protocol: as §1, §2, §3, §4

[8] = biological target: Ah‐BarR (S. acidocaldarius promoter P sa‐barR, mKate2 reporter) (Acidianus hospitalis, UniProt F4B5V3); experiment: cell-based
Ah‐BarR (S. acidocaldarius promoter P sa‐barR, mKate2 reporter), sequence (F4B5V3 1-165): as the sequence (F4B5V3 entry or part of it M103N) above, with N103M counted along it
Protocol: as §1, §2, §3, §4
(§5) Additional in vivo experiments were performed on strains BS3 and BS4 using the S. acidocaldarius promoters P sa‐barR and P sa‐at , respectively, in combination with Ah‐BarR.

[9] = biological target: Ah‐BarR (S. acidocaldarius promoter P sa‐at, mKate2 reporter) (Acidianus hospitalis, UniProt F4B5V3); experiment: cell-based
Ah‐BarR (S. acidocaldarius promoter P sa‐at, mKate2 reporter), sequence (F4B5V3 1-165): as the sequence (F4B5V3 entry or part of it M103N) above, with N103M counted along it
Protocol: as §1, §2, §3, §4, §5

[10] = BS1 M103T, β‐alanine 0–10 mM, 20 mg/L naringenin, Hill fit
[11] = BS1 T136A, β‐alanine 0–10 mM, 20 mg/L naringenin, Hill fit
[12] = BS1 M103A, β‐alanine 0–10 mM, 20 mg/L naringenin, Hill fit
[13] = BS1, β‐alanine 0–10 mM, 20 mg/L naringenin, t = 30 h, Hill fit
[14] = BS3, β‐alanine 0–10 mM, 20 mg/L naringenin, Hill fit
[15] = BS4, β‐alanine 0–10 mM, 20 mg/L naringenin, Hill fit

Ah‐BarR M103T (P ah‐barR promoter, mKate2 reporter), sequence (F4B5V3 entry or part of it M103T): as the sequence (F4B5V3 entry or part of it M103N) above, with N103T counted along it

## NCCC(=O)O [β‐alanine]
[1]
  EC50: 320 µM
[1]; BS1 M103T, 20 mg/L naringenin
  Hill coefficient n: 1.36
[1]; BS1 M103T, µ = a/b
  Dynamic range µ: 2.49
[1]; [10]
  Basal fluorescence output b: 3184 RFU
  Maximum fluorescence increase a: 7915 RFU
[2]
  Basal fluorescence output b: 2281 RFU
  Dynamic range µ: 4.11
  EC50: 460 µM
  Hill coefficient n: 1.48
  Maximum fluorescence increase a: 9373 RFU
[3]
  effect of β‐alanine on formation of Ah‐BarR‐DNA complexes: did not significantly alter
[4]
  EC50: 960 µM
[4]; BS1 T136A, 20 mg/L naringenin
  Hill coefficient n: 1.36
[4]; BS1 T136A, µ = a/b
  Dynamic range µ: 3.31
[4]; [11]
  Basal fluorescence output b: 2469 RFU
  Maximum fluorescence increase a: 8171 RFU
[5]
  EC50: 1350 µM
[5]; BS1 M103A, 20 mg/L naringenin
  Hill coefficient n: 1.88
[5]; BS1 M103A, µ = a/b
  Dynamic range µ: 3.25
[5]; [12]
  Basal fluorescence output b: 2289 RFU
  Maximum fluorescence increase a: 7429 RFU
[6]
  EC50: 370 µM
[6]; BS1, 20 mg/L naringenin
  Hill coefficient n: 1.77
[6]; BS1, µ = a/b
  Dynamic range µ: 3.07
[6]; [13]
  Basal fluorescence output b: 2226 RFU
  Maximum fluorescence increase a: 6828 RFU
[6]; BS1 and BS2 strains, 20 mg/L naringenin, individual amino acids of pools 1 and 7 at 3/5 mM
  ligand specificity: effect on transcriptional regulation of barR and at: specifically ascribed to β‐alanine
[7]
  Basal fluorescence output b: 2485 RFU
  Dynamic range µ: 3.56
  Hill coefficient n: 1.60
  Maximum fluorescence increase a: 8840 RFU
[7]; read-out: Threshold θ, BS1 trunc, 20 mg/L naringenin
  EC50: 260 µM
[8]
  EC50: 100 µM
[8]; BS3, 20 mg/L naringenin
  Hill coefficient n: 2.00
[8]; BS3, µ = a/b
  Dynamic range µ: 1.17
[8]; [14]
  Basal fluorescence output b: 4595 RFU
  Maximum fluorescence increase a: 5355 RFU
[9]
  EC50: 90 µM
[9]; BS4, 20 mg/L naringenin
  Hill coefficient n: 2.99
[9]; BS4, µ = a/b
  Dynamic range µ: 5.15
[9]; [15]
  Basal fluorescence output b: 13,873 RFU
  Maximum fluorescence increase a: 71,426 RFU
